Source: US20110039783A1, “PEPTIDE HAVING HYPOTENSIVE ACTIVITY” (DAIICHI SANKYO COMPANY LIMITED, priority 2007, published 2011)
“Also recorded” adds a separate entry of the source. Where no end group is shown, it is not given here.

Legend:
[1] = system: blood pressure of anesthetized Sprague-Dawley IGS male rats; assay: Hypotensive activity in anesthetized rats, invasive blood pressure measurement after intravenous administration; assay type: in vivo, rat; conditions: for Hypotensive activity (dose/rat) 10 nmol / Hypotensive activity (dose/rat) 30 nmol / Hypotensive activity (dose/rat) 100 nmol: intravenous; for Hypotensive activity (dose/rat) 10 nmol: 10 nmol/rat; for Hypotensive activity (dose/rat) 30 nmol: 30 nmol/rat; for Hypotensive activity (dose/rat) 100 nmol: 100 nmol/rat
Description: 50 mg/kg pentobarbital sodium was intraperitoneally administered to 8- to 10-week-old Sprague-Dawley IGS male rats (Charles River Laboratories Japan, Inc.) for anesthesia. Thereafter, a tracheal cannula (PE 250), a femoral vein cannula (PE50), and a femoral artery cannula (PESO) were inserted into each rat. The femoral artery cannula was connected with a pressure transducer (PE23XL; manufactured by Nihon Kohden Corporation), and an apparatus formed by incorporating a blood pressure measurement unit (AP-641G; manufactured by Nihon Kohden Corporation) and an instantaneous heart rate measurement unit (AT-601G; manufactured by Nihon Kohden Corporation) into a multi-purpose preamplifier (RP-6004; manufactured by Nihon Kohden Corporation) was used to record the blood pressure and heart rate of each rat. The blood pressure was calibrated using a mercury manometer included in a stand-type electromanometer (MP-25S; manufactured by Nihon Kohden Corporation). The recording paper was adjusted, such that 10 mm or 20 mm on the recording paper corresponded to 100 mmHg.
Each peptide was dissolved in a concentration of 1 mM or 10 mM in a 0.1% acetic acid solution to prepare a peptide solution. Thereafter, depending on dose, it was diluted with a normal saline containing 0.1% bovine serum albumin (Fr.V). In the case of the dose of 10 nmol/rat, a 1 mM peptide solution was 10 times diluted, and 100 μl of the diluted solution was administered. In the case of the dose of 30 nmol/rat, a 1 mM peptide solution was 10 times diluted, and 300 μL, of the diluted solution was administered. In the case of the dose of 100 nmol/rat, a 10 mM peptide solution was 10 times diluted, and 100 μL of the diluted solution was administered. Each peptide was intravenously administered via the femoral vein cannula, and the systolic blood pressure, diastolic blood pressure, and heart rate were then measured.
Various HC021 derivative peptides were synthesized in accordance with Example 1, and such peptide was then administered to each rat at a dose of 10 nmol/rat, 30 nmol/rat, or 100 mol/rat by the method described in Example 2. Thereafter, the hypotensive activity of each derivative peptide was measured. […] The strength of such activity was determined using a median of activity in repeated experiments. In addition, in order to make a comparison among the activities of various derivative peptides, the strength of hypotensive activity was defined as follows.
Strength of Hypotensive Activity
Extremely strong activity (+++): A decrease in systolic blood pressure is 30 mmHg or more, and the time required for recovery is 5 minutes or more.
Strong activity (++): A decrease in systolic blood pressure is 20 mmHg or more and less than 30 mmHg, or the time required for recovery is less than 5 minutes.
Activity observed (+): A decrease in systolic blood pressure is less than 20 mmHg.
Activity not observed (−)
Various HC021 peptide sequence-substituted products were synthesized in accordance with Example 1, and their hypotensive activity was then measured according to the method of Example 3.

[2] = system: blood pressure of awake Sprague-Dawley IGS male rats; assay: Hypotensive activity on awake rats; assay type: in vivo, rat; parameters: key to Hypotensive activity (dose/rat) 10 nmol / Hypotensive activity (dose/rat) 30 nmol: Extremely strong activity (+++): A decrease in systolic blood pressure is 30 mmHg or more, and the time required for recovery is 5 minutes or more.; Strong activity (++): A decrease in systolic blood pressure is 20 mmHg or more and less than 30 mmHg, or the time required for recovery is less than 5 minutes.; Activity observed (+): A decrease in systolic blood pressure is less than 20 mmHg.; Activity not observed (−); conditions: for Hypotensive activity (dose/rat) 10 nmol / Hypotensive activity (dose/rat) 30 nmol / Hypotensive activity (dose/rat) 100 nmol: Table 4, intravenous; for Hypotensive activity (dose/rat) 10 nmol: 10 nmol/rat; for Hypotensive activity (dose/rat) 30 nmol: 30 nmol/rat; for Hypotensive activity (dose/rat) 100 nmol: 100 nmol/rat
Description: 50 mg/kg pentobarbital sodium was intraperitoneally administered to 8- to 10-week-old Sprague-Dawley IGS male rats (Charles River Laboratories Japan, Inc.) for anesthesia. Thereafter, a jugular vein cannula (Silascon 0.5-1.0) was inserted into each rat for use in peptide administration, and a carotid artery cannula (PE50) was inserted into each rat for use in the measurement of blood pressure. At least 3 hours after the surgery, it was confirmed that the rats were awoken from the anesthesia based on general conditions such as the posture, respiration, and the like of the rats. Thereafter, the rats were subjected to the experiment.
The carotid artery cannula was connected with a pressure transducer (PE23XL; manufactured by Nihon Kohden Corporation), and an apparatus formed by incorporating a blood pressure measurement unit (AP-641G; manufactured by Nihon Kohden Corporation) and an instantaneous heart rate measurement unit (AT-601G; manufactured by Nihon Kohden Corporation) into a multi-purpose preamplifier (RP-6004; manufactured by Nihon Kohden Corporation) was used to record the blood pressure and heart rate of each rat. The blood pressure was calibrated using a mercury manometer included in a stand-type electromanometer (MP-25S; manufactured by Nihon Kohden Corporation). The recording paper was adjusted, such that 20 mm or 40 mm on the recording paper corresponded to 100 mmHg. A solvent in which each peptide had been dissolved was used as a negative control in blood pressure fluctuation.
Each peptide was dissolved in a concentration of 1 mM in a 5% mannitol solution to prepare a peptide solution. Thereafter, depending on dose, it was diluted with a 5% mannitol solution. In the case of the dose of 10 nmol/rat, a 1 mM peptide solution was 30 times diluted, and 300 μL of the diluted solution was administered. In the case of the dose of 30 nmol/rat, a 1 mM peptide solution was 10 times diluted, and 300 μl of the diluted solution was administered. In the case of the dose of 100 nmol/rat, a 1 mM peptide solution was 3 times diluted, and 300 μL of the diluted solution was administered. Each peptide was intravenously administered via the jugular vein cannula, and the systolic blood pressure, diastolic blood pressure, and heart rate were then measured.
The definition of the strength of hypotensive activity was the same as that of Example 3.

[3] = system: anti-[N-Cys]-HC021-004 serum; assay: ELISA binding of anti-[N-Cys]-HC021-004 serum to coated peptides; parameters: species or system rabbit; conditions: absorbance at 405 nm, FIG. 3
Description: Using [N-Cys]-HC021-004 (a peptide prepared by binding cysteine to the amino terminus of HC021-004) as an antigen, a rabbit was immunized with the antigen to produce antiserum (anti-[N-Cys]-HC021-004 serum).
The ability of this antiserum to bind to peptides having various types of sequences was examined using Protein Detector™ ELISA kit (AP; BluePhos System; manufactured by KPL). Reactions were all carried out at a room temperature. A 96-well immunoplate (maxi-coated; manufactured by Nunc) was coated (amount: 100 uL/well) with each peptide having a different type of sequence (concentration: 1 ng/100 uL) for 1 hour. Then, it was blocked with a 300 uL/well blocking solution for 1 hour. Thereafter, the serially diluted antiserum was added in an amount of 100 uL/well to the immunoplate, followed by reaction for 1 hour. After completion of washing, 500-times diluted Anti-rabbit IgG HRP Ab (manufactured by KPL) was added thereto in an amount of 100 uL/well, followed by reaction for 1 hour. After completion of washing, ABTS (manufactured by KPL) used as a substrate was added thereto in an amount of 100 uL/well. Thirty minutes later, the absorbance at 405 nm was measured.

Substance	Hypotensive activity (dose/rat) 10 nmol ([1]; Table 3, anesthetized rats)	Hypotensive activity (dose/rat) 30 nmol ([1]; Table 3, anesthetized rats)	Hypotensive activity (dose/rat) 100 nmol ([1]; Table 3, anesthetized rats)	hypotensive activity (in words) [2]	Hypotensive activity (dose/rat) 10 nmol [2]	Hypotensive activity (dose/rat) 30 nmol [2]	Hypotensive activity (dose/rat) 100 nmol [2]	binding of anti-[N-Cys]-HC021-004 serum to the peptide [3]	Hypotensive activity (dose/rat) 30 nmol ([1]; Table 1, anesthetized rats)	Hypotensive activity (dose/rat) 100 nmol ([1]; Table 1, anesthetized rats)	Hypotensive activity (dose/rat) 30 nmol ([1]; Table 2, anesthetized rats)	Hypotensive activity (dose/rat) 100 nmol ([1]; Table 2, anesthetized rats)	Hypotensive activity (dose/rat) 10 nmol ([1]; Table 1, anesthetized rats)	Hypotensive activity (dose/rat) 10 nmol ([1]; Table 2, anesthetized rats)	dose dependence of hypotensive activity ([1]; anesthetized rats, 10, 30, 100 nmol/rat)	hypotensive activity (in words) ([1]; anesthetized rats, Table 1 and FIG. 1, 10 or 30 nmol/rat, listed as HC021-004)
ATLRNEDTWKPLSNPRNRELFFRSLQAYFK-amide [Compound 36]	−	−	+++ (Extremely strong activity (+++): A decrease in systolic blood pressure is 30 mmHg or more, and the time required for recovery is 5 minutes or more.)	observed to have a hypotensive activity even on the awake rats	−	−	++ (Strong activity (++): A decrease in systolic blood pressure is 20 mmHg or more and less than 30 mmHg, or the time required for recovery is less than 5 minutes.)									
LQAYFK-amide (LQAYFK-NH2) [Compound 4]								bound	−	−	−	−				
LQAYFKGRGLDLGTFPNPFPTNENP [Compound 2]								did not bind	−	−			−			
NRDLFFRRLQAYFK-amide (NRDLFFRRLQAYFK-NH2) [Compound 3]	+ (Activity observed (+): A decrease in systolic blood pressure is less than 20 mmHg.)	++ (Strong activity (++): A decrease in systolic blood pressure is 20 mmHg or more and less than 30 mmHg, or the time required for recovery is less than 5 minutes.)	+++ (Extremely strong activity (+++): A decrease in systolic blood pressure is 30 mmHg or more, and the time required for recovery is 5 minutes or more.)	observed to have a hypotensive activity even on the awake rats	−	−	++ (Strong activity (++): A decrease in systolic blood pressure is 20 mmHg or more and less than 30 mmHg, or the time required for recovery is less than 5 minutes.)	bound	++ (Strong activity (++): A decrease in systolic blood pressure is 20 mmHg or more and less than 30 mmHg, or the time required for recovery is less than 5 minutes.)	+++ (Extremely strong activity (+++): A decrease in systolic blood pressure is 30 mmHg or more, and the time required for recovery is 5 minutes or more.)	++ (Strong activity (++): A decrease in systolic blood pressure is 20 mmHg or more and less than 30 mmHg, or the time required for recovery is less than 5 minutes.)	+++ (Extremely strong activity (+++): A decrease in systolic blood pressure is 30 mmHg or more, and the time required for recovery is 5 minutes or more.)	+ (Activity observed (+): A decrease in systolic blood pressure is less than 20 mmHg.)	+ (Activity observed (+): A decrease in systolic blood pressure is less than 20 mmHg.)	enhanced their hypotensive activity in a dose-dependent manner	observed to have a hypotensive activity; also recorded: act to lower the blood pressure of rats
